The target in assay [1] is T1, BTK C481S (Homo sapiens, UniProt Q06187, C481S).
T1 construct: purchased Carna 08-547
The assay can be described thus: Kinase activity inhibition assay (HTRF TK Kit). The format is biochemical. From the text: (§1) In this assay, the HTRF TK Kit (Catalog No. 62TK0PEC) provided by Cisbio was used to detect the inhibitory activity of compounds on BTK kinase, BTK T474I kinase and BTK C481 S kinase and the selectivity of compounds relative to EGFR, ITK and TEC kinases.
(§2) Reagents and consumables: BTK kinase (Invitrogen, Catalog No. PV3587), BTK C481S (Carna, Product No. 08-547), BTK T474I(SignalChem Product No. B10-12HH), ITK (Cama, Product No. 08-181), EGFR (Cama, Product No. 08-115), TEC (Carna, Product No. 08-182), HTRF-TK kit (Cisbio, Product No. 62TK0PEC), MgCl2 (Sigma, Product No. M1028), MnCl2 (Sigma, Product No. M1787), DTT (Sigma, Product No. D0632), ATP (Sigma, Product No. A7699-1g), DMSO (Sigma, Product No. D2650), 384-well plate (PE, Product No. 6008280).
(§3) The entire operation steps were carried out on ice, and the total reaction volume was 10µL. A compound (4µL), substrate and ATP (4µL), and kinase (2µL) were added in sequence to a 384-well plate, and the plate was shaken for 30 seconds. The mixture was reacted at room temperature for an appropriate time, and then the detection reagent was added. The resulting mixture was reacted at room temperature for 1 hour, and then the plate was assayed with a microplate reader. The specific steps were as follows: • a) a 1 × kinase buffer solution required for the kinase assay was calculated according to the amount of the test compound, and prepared as needed; • b) 2.5 × working concentration of a compound was prepared, 100-fold gradient concentration solutions of a compound were diluted by 40 × to the desired concentration, respectively, mixed well, and added to each well at 4 µL per well; • c) 5 × working concentration of the substrate and ATP were prepared, mixed in a ratio of 1:1 before being added to the 384-well plate, and added to each well at 4 µL per well; • d) 5 × working concentration of a kinase was prepared, 2 µL of which was added to each well; • e) the plate was shaken on a microplate shaker for 30 seconds, sealed with a sealing membrane, and the mixture was reacted at room temperature for an appropriate time; • f) 4 × working concentration of streptavidin XL-665 and TK antibody-cryptate compound were prepared, mixed in a ratio of 1:1 before being added to the 384-well plate, and added to each well at 10 µL per well; • g) the mixture was reacted at room temperature for 1 hour, and then the plate was read; • h) the wells with only substrate, ATP and 1% DMSO added but no kinase were blank control wells, and the wells with only substrate, ATP, 1% DMSO and kinase were positive control wells.
(§4) Readings: The values of 620 nm (cryptate) and 665 nm (XL665) were read with a BioTek Synerg Neo2 microplate reader, the ratio of 665/620 for each well was calculated, and the data were exported.
(§5) Data analysis: IC50 was calculated using GraphPad Prism 7.0 software.
(§6) The IC50 (half-maximal inhibitory concentration) of the compound was obtained using the following nonlinear fitting formula: Y = Bottom + (Top−Bottom)/(1+10^(∧)((LogIC50−X)*HillSlope)) [formula] • X: Log value of the compound concentration • Y: Inhibition rate (% inhibition) • Top: Maximum response • Bottom: Baseline response • HillSlope: Slope of the curve
(§7) The formula for calculating kinase inhibition rate (inhibition rate %) was: [formula]

For assay [2], the target named is T2, BTK T474I (Homo sapiens, UniProt Q06187, T474I).
T2 construct: purchased SignalChem B10-12HH
The assay is described as follows: Kinase activity inhibition assay (HTRF TK Kit). The format is biochemical.
From the text: as §1, §2, §3, §4, §5, §6, §7
For orientation: TR-FRET usually uses a lanthanide donor and a delayed reading to cut background.

Assay [3] addresses T3, BTK kinase (Homo sapiens, UniProt Q06187).
T3 construct: purchased Invitrogen PV3587
The assay can be described thus: Kinase activity inhibition assay (HTRF TK Kit). In kind it is biochemical.
From the text: as §1, §2, §3, §4, §5, §6, §7

For assay [4], the system named is Ramos cells with BTK WT. The assay can be described thus: Phosphor-BTK(Y223) assay, suspended cells. Particulars: Homo sapiens, Ramos, phosphorylated BTK Y223, Ramos cells with BTK WT. The format is cell-based. The essentials:
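Ramos BTK WT cells (2.5 k/well) were treated with compound dilutions for 2 h at 37 °C, then 5 mM Na3VO4 for 3 h. Lysates were read by HTRF p-BTK(Y223) cryptate/d2 antibodies overnight at RT (665/620 ratio). IC50 came from a four-parameter fit of % inhibition versus blank and positive-control wells.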

Where only a bound is given, the exact number is not on record here.

T1 sequence (Q06187 whole entry C481S): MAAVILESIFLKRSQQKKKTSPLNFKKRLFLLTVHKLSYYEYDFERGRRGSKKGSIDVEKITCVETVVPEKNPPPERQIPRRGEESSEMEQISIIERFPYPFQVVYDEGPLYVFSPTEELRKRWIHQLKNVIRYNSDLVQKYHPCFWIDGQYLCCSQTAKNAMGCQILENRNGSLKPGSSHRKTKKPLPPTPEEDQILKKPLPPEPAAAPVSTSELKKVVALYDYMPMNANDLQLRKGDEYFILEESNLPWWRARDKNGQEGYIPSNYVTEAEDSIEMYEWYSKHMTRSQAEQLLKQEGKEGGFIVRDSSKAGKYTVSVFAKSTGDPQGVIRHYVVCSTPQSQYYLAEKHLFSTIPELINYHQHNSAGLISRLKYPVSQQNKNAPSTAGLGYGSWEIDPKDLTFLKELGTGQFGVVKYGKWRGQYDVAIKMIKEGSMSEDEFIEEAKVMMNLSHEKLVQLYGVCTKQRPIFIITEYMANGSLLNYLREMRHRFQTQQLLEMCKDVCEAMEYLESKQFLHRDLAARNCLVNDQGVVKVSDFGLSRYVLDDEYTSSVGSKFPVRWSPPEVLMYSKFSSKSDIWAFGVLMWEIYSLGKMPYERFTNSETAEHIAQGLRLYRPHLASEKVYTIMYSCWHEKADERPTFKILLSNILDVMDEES
T3 sequence (Q06187 whole entry): as the sequence (Q06187 whole entry C481S) above, with S481C counted along it
T2 sequence (Q06187 whole entry T474I): as the sequence (Q06187 whole entry C481S) above, with T474I, S481C counted along it

`CCOC(=O)c1cnc2cc(-c3cnc(-c4ccc(CNC(=O)c5cc(F)ccc5OC)cc4)c4c(N)n[nH]c34)nn2c1` [Example 45, ethyl 2-(3-amino-4-(4-((5-fluoro-2-methoxybenzoylamino)methyl)phenyl)-1H-pyrazolo[4,3-c]pyridin-7-yl)pyrazolo[1,5-a]pyrimidine-6-carboxylate]: the IC50 – broadly, the concentration at which inhibition is half-maximal – in assay [1] is 5 to 50 nM; in assay [2], over 500 nM; in assay [3], 5 to 50 nM; in assay [4], over 50 nM.
On to `COc1ccc(F)cc1C(=O)NCc1ccc(-c2ncc(-c3ccn4nccc4n3)c3[nH]nc(N)c23)cc1` [Example 46, N-(4-(3-amino-7-(pyrazolo[1,5-a]pyrimidin-5-yl)-1H-pyrazolo[4,3-c]pyridin-4-yl)benzyl)-5-fluoro-2-methoxybenzamide], for which the IC50 is 1 to 5 nM in assay [1], 50 to 500 nM in assay [2], 1 to 5 nM in assay [3] and at most 5 nM in assay [4].
As for `COc1ccc(F)cc1C(=O)NCc1ccc(-c2ncc(-c3ccc4cn[nH]c4n3)c3[nH]nc(N)c23)cc1` [Example 47, N-(4-(3-amino-7-(1H-pyrazolo[3,4-b]pyridin-6-yl)-1H-pyrazolo[4,3-c]pyridin-4-yl)benzyl)-5-fluoro-2-methoxybenzamide], the half-maximal inhibitory concentration (IC50) is 1 to 5 nM in assay [1], 50 to 500 nM in assay [2], 1 to 5 nM in assay [3] and 5 to 10 nM in assay [4].
For the compound `COc1ccc(F)cc1C(=O)NCc1ccc(-c2ncc(-c3ccc(C(F)F)cn3)c3[nH]nc(N)c23)cc1` [Example 48, N-(4-(3-amino-7-(5-(difluoromethyl)pyridin-2-yl)-1H-pyrazolo[4,3-c]pyridin-4-yl)benzyl)-5-fluoro-2-methoxybenzamide], the IC50 in assay [1] was 1 to 5 nM; in assay [2], 5 to 50 nM; in assay [3], 1 to 5 nM; in assay [4], at most 5 nM.
For `COc1ccc(F)cc1C(=O)NCc1ccc(-c2ncc(-c3cn4ccnc4cn3)c3[nH]nc(N)c23)cc1` [Example 50, N-(4-(3-amino-7-(imidazo[1,2-a]pyrazin-6-yl)-1H-pyrazolo[4,3-c]pyridin-4-yl)benzyl)-5-fluoro-2-methoxybenzamide], the IC50 is 1 to 5 nM in assay [1], 50 to 500 nM in assay [2], 1 to 5 nM in assay [3] and 5 to 10 nM in assay [4].
`COc1ccc(F)cc1C(=O)NCc1ccc(-c2ncc(-c3ccc4nccn4n3)c3[nH]nc(N)c23)cc1` [Example 51, N-(4-(3-amino-7-(imidazo[1,2-b]pyridazin-6-yl)-1H-pyrazolo[4,3-c]pyridin-4-yl)benzyl)-5-fluoro-2-methoxybenzamide]: the IC50 in assay [1] is at most 1 nM; in assay [2] it was 50 to 500 nM; in assay [3], 1 to 5 nM; in assay [4] it was 5 to 10 nM.
Turning to `COc1ccc(F)cc1C(=O)NCc1ccc(-c2ncc(-c3ccc(C(=O)N4CCOCC4)cn3)c3[nH]nc(N)c23)cc1` [Example 52, N-(4-(3-amino-7-(5-(morpholine-4-carbonyl)pyridin-2-yl)-1H-pyrazolo[4,3-c]pyridin-4-yl)benzyl)-5-fluoro-2-methoxybenzamide], the 50% inhibitory concentration (IC50) is at most 1 nM in assay [1], 5 to 50 nM in assay [2], at most 1 nM in assay [3] and at most 5 nM in assay [4].
On to `COc1ccc(F)cc1C(=O)NCc1ccc(-c2ncc(-c3ccc(C(=O)N4C[C@H](C)O[C@@H](C)C4)cn3)c3[nH]nc(N)c23)cc1` [Example 53, N-(4-(3-amino-7-(5-((2S,6S)-2,6-dimethylmorpholine-4-carbonyl)pyridin-2-yl)-1H-pyrazolo[4,3-c]pyridin-4-yl)benzyl)-5-fluoro-2-methoxybenzamide], for which the IC50 in assay [1] was in the range of 1 to 5 nM; in assay [2], 50 to 500 nM; in assay [3], 1 to 5 nM; in assay [4] it was 5 to 10 nM.
As to `COc1ccc(F)cc1C(=O)NCc1ccc(-c2ncc(-c3ccc(C(=O)N4C[C@@H](C)O[C@H](C)C4)cn3)c3[nH]nc(N)c23)cc1` [Example 54, N-(4-(3-amino-7-(5-((2R,6R)-2,6-dimethylmoroholine-4-carbonyl)pyridin-2-yl)-1H-pyrazolo[4,3-c]pyridin-4-yl)benzyl)-5-fluoro-2-methoxybenzamide], the IC50 in assay [1] was 1 to 5 nM; in assay [2], 50 to 500 nM; in assay [3], 1 to 5 nM; in assay [4], at most 5 nM.
`COc1ccc(F)cc1C(=O)NCc1ccc(-c2ncc(-c3ccc(P(C)(C)=O)cn3)c3[nH]nc(N)c23)cc1` [Example 56, N-(4-(3-amino-7-(5-(dimethylphosphoryl)pyridin-2-yl)-1H-pyrazolo[4,3-c]pyridin-4-yl)benzyl)-5-fluoro-2-methoxybenzamide]: the half-maximal inhibitory concentration (IC50) was 1 to 5 nM in assay [1], 5 to 50 nM in assay [2], 1 to 5 nM in assay [3] and at most 5 nM in assay [4].
For the compound `COc1ccc(F)cc1C(=O)NCc1ccc(-c2ncc(-c3nc4cnccn4n3)c3[nH]nc(N)c23)cc1` [Example 57, N-(4-(7-([1,2,4]triazolo[1,5-a]pyrazin-2-yl)-3-amino-1H-pyrazolo[4,3-c]pyridin-4-yl)benzyl)-5-fluoro-2-methoxybenzamide], the half-inhibitory concentration (IC50) in assay [1] is at most 1 nM; in assay [2] it was 50 to 500 nM; in assay [3], 1 to 5 nM; in assay [4], 10 to 50 nM.
Consider `COc1ccc(F)cc1C(=O)NCc1ccc(-c2ncc(-c3nc4ccccn4n3)c3[nH]nc(N)c23)cc1` [Example 58, N-(4-(7-([1,2,4]triazolo[1,5-a]pyridin-2-yl)-3-amino-1H-pyrazolo[4,3-c]pyridin-4-yl)benzyl)-5-fluoro-2-methoxybenzamide], for which the IC50 in assay [1] was 1 to 5 nM; in assay [2], 5 to 50 nM; in assay [3], 1 to 5 nM; in assay [4], at most 5 nM.
In the case of `COCCOc1ccc(-c2cnc(-c3ccc(CNC(=O)c4cc(F)ccc4OC)cc3)c3c(N)n[nH]c23)nc1` [Example 59, N-(4-(3-amino-7-(5-(2-methoxyethoxy)pyridin-2-yl)-1H-pyrazolo[4,3-c]pyridin-4-yl)benzyl)-5-fluoro-2-methoxybenzamide], the IC50 in assay [1] is at most 1 nM; in assay [2], 5 to 50 nM; in assay [3], at most 1 nM; in assay [4] it was at most 5 nM.
With `COc1ccc(F)cc1C(=O)NCc1ccc(-c2ncc(-c3ccc(OCCN(C)C)cn3)c3[nH]nc(N)c23)cc1` [Example 60, N-(4-(3-amino-7-(5-(2-(dimethylamino)ethoxy)pyridin-2-yl)-1H-pyrazolo[4,3-c]pyridin-4-yl)benzyl)-5-fluoro-2-methoxybenzamide], the IC50 was at most 1 nM in assay [1], 5 to 50 nM in assay [2], at most 1 nM in assay [3] and at most 5 nM in assay [4].
For the compound `COc1ccc(F)cc1C(=O)NCc1ccc(-c2ncc(-c3ccc(OCCN4CCOCC4)cn3)c3[nH]nc(N)c23)cc1` [Example 61, N-(4-(3-amino-7-(5-(2-morpholinoethoxy)pyridin-2-yl)-1H-pyrazolo[4,3-c]pyridin-4-yl)benzyl)-5-fluoro-2-methoxybenzamide], the IC50 is at most 1 nM in assay [1], 5 to 50 nM in assay [2], at most 1 nM in assay [3] and at most 5 nM in assay [4].

(Values after patent EP4741392A1, “1H-PYRAZOLO[4,3-C]PYRIDINE COMPOUND, AND COMPOSITION THEREOF AND USE THEREOF” (Shenzhen TargetRx Co., Ltd., priority 2023, dated 2025).)
